# Measurements: patent US20190054019A1, “METHODS FOR USING REGULATORS FOR INCREASING THE EXPRESSION OR ACTIVATION OF P53 AND/OR REGULATORS FOR REDUCING OR INHIBITING THE EXPRESSION OF P63-ALPHA, FOR THE TREATMENT OF NON-ALCOHOLIC FATTY LIVER DISEASE (NAFLD) AND/OR NON-ALCOHOLIC STEATOHEPATITIS (NASH)” (Universidade de Santiago de Compostela, priority 2015, published 2019)
# Assays:
# [1] = Doxorubicin intraperitoneal for 5 days in Swiss mice on standard diet: body weight; format: in vivo, mice of the Swiss strain
# [2] = system: mice of the C57/B6 strain fed with a HFD; experiment: Doxorubicin in C57/B6 mice fed HFD (60% fat); format: in vivo; conditions: 0.6 mg/kg i.p. twice per week, two months
# Description: Subsequently, mice were administered a dose of 0.6 mg/kg intra-peritoneally twice per week during a further period of two months.
# [3] = system: HFD-induced obese mice
# [4] = system: HepG2; experiment: Accumulation of lipids induced by oleic acid in human hepatocytes (HepG2); format: cell-based; conditions: 48 h
# Description: The hepatocyte cell line of human origin HepG2 was treated with bovine serum albumin (BSA, which represents the control group), oleic acid (OA) and 50 nM oleic acid+doxorubicin for 48 h.
# [5] = system: HepG2 cells; experiment: Response of HepG2 cells (control or p53 negative dominant) to etoposide; format: cell-based, human
# Source text: FIG. 9. Effect of p53 silencing in HepG2 cells. (A) Efficiency of the down-regulation of p53 in HepG2 cells transfected with adenoviruses expressing GFP alone or adenoviruses encoding a p53 negative dominant. (B) Oil red staining in HepG2 cells treated with etoposide at different concentrations. (C) Representative western blot of protein levels of peIF2α and Xbp1 in HepG2 cells non-treated and treated with etoposide. *p<0.05, n=4 per group.
# HepG2 cells were infected with adenoviruses expressing GFP alone or adenoviruses encoding a p53 negative dominant and treated with etoposide.
# HepG2 cells were infected with adenoviruses expressing GFP alone or adenoviruses encoding a p53 negative dominant. Infection efficiency was assessed by decreased expression of phosphor-p53 (pp53) (FIG. 9A). In order to investigate the response of control cells and cells with silenced p53, we challenged them to etoposide, a well established compound that induces stress.
# [6] = 0.6 mg/kg i.p. twice per week, 2 months
# [7] = 0.6 mg/kg, two months, vs control vehicle
# [8] = HepG2 cells treated with etoposide
structure (smiles),measurement,setting,value
COc1cccc2c1C(=O)c1c(O)c3c(c(O)c1C2=O)C[C@@](O)(C(=O)CO)C[C@@H]3O[C@H]1C[C@H](N)[C@H](O)[C@H](C)O1 [doxorubicin],body weight change,"[1]; 0.3, 0.6, 1.25, 2.5 and 5 mg/kg intraperitoneal, 1 injection/day, dose dependent",significant loss of weight
same,dosages capable of reducing the body weight significantly,[1]; intraperitoneal,≥ 0.6 mg/kg
same,body weight,[2],reduced their body weight significantly
same,hepatic tryglicerides,[2],significantly reduced
same,body composition: muscle mass,[3]; [6],without altering the muscle mass
same,body composition: quantity of fat,[3]; [6],reduce quantity of fat
same,levels of troponine (marker of cardiovascular damage),"[3]; 0.6 mg/kg i.p., serum",fails to significantly increase
same,hepatic damage (histological study),"[3]; 0.6 mg/kg, two months",reduced hepatic damage
same,"liver expression of inflammatory markers TNF-α, arginase, IL-6, NOS2 and F480","[3]; 0.6 mg/kg, two months, mRNA",reduces the expression
same,level of non-esterified fatty acids in the liver,[3]; [7],increased
same,level of triglycerides in the liver,[3]; [7],reduced
same,"liver protein levels of ER stress genes pIRE, XBP1, CHOP, pJNK","[3]; 0.6 mg/kg, two months, western blot",reduced the protein levels
same,body weight,"[3]; all studied dosages (0.15, 0.3, 0.6, 1.25 mg/kg) i.p. twice per week, 2 months",significant loss of body weight
same,amount of lipids in the cells vs cells treated with oleic acid,[4]; 50 nM oleic acid+doxorubicin,significant decrease in the amount of lipids
COc1cc([C@@H]2c3cc4c(cc3[C@@H](O[C@@H]3O[C@@H]5CO[C@@H](C)O[C@H]5[C@H](O)[C@H]3O)[C@H]3COC(=O)[C@H]23)OCO4)cc(OC)c1O [etoposide],ER stress markers peIF2α and XBP1 in cells with silenced p53 vs control cells,[5]; [8],higher levels
same,amount of lipid droplets in p53 dominant negative-infected cells vs control cells,[5]; [8],increased amount of lipid droplets
same,lipid deposition (oil red staining),"[5]; HepG2 cells, dose-dependent",increased lipid deposition
CCCCCCCC/C=C\CCCCCCCC(=O)O [oleic acid],amount of lipids in the cells vs BSA control,[4]; oleic acid,significantly increases the amount of lipids
